Laboratory results reported in US9951094B2, “Phosphole compound and fluorescent dye containing the same” (NATIONAL UNIVERSITY CORPORATION NAGOYA UNIVERSITY, priority 2014, dated 2018).
Marks after values point to notes of the source that are not given here.

Tests used:
Type in all cases: physicochemical
[1] = Absolute fluorescence quantum yield in solvents
Description: (§1) The optical properties of compounds 1 to 3, 6b to 6d, 7a, and 7b were evaluated. Ultraviolet-visible (UV-Vis) absorption and fluorescence spectra were measured with an UV-Vis-NIR spectrophotometer UV-3150 (Shimadzu) and a fluorescence spectrophotometer F-4500 (Hitachi), respectively. Absolute fluorescence quantum yield was determined with an absolute PL quantum yield measurement instruments C9920-02 or C11347-01 (Hamamatsu Photonics). Sample solutions of all the samples were prepared using spectral grade solvents purchased from Nacalai Tesque, and were each measured with a 1 cm square quartz cuvette. The concentrations of each sample for the measurement of UV-Vis absorption spectra were set for ca. 10^−5 M. The concentrations of each sample for the measurement of fluorescence spectra were adjusted in a range where concentration quenching would not occur. For the measurement of absolute fluorescence quantum yield, each sample solution was deaerated by purging with an argon gas stream for several minutes prior to the measurements. The orientation polarizabilities Δf of hexane, ethyl acetate, and methanol, which are not shown in the Tables, were −0.000518, 0.201, and 0.309, respectively.

[2] = UV-Vis absorption spectra in solvents
Description: as §1

[3] = Fluorescence spectra in solvents
Description: as §1

[4] = cyclohexane, apparatus C11347-01, self-absorption correction
[5] = cyclohexane, apparatus C11347-01
[6] = ethyl acetate, apparatus C11347-01

SMILES | Fluorescence Quantum Yield φF ([1]; CH3CN, apparatus C11347-01) | Fluorescence Quantum Yield φF ([1]; EtOH, apparatus C11347-01) | Fluorescence Quantum Yield φF [1, 4] | Absorption Maximum Wavelength λ max ([2]; CH2Cl2) [nm] | Molar Absorption Coefficient ϵ ([2]; CH2Cl2) | Absorption Maximum Wavelength λ max ([2]; CH3CN) [nm] | Molar Absorption Coefficient ϵ ([2]; CH3CN) | Absorption Maximum Wavelength λ max ([2]; DMF) [nm] | Molar Absorption Coefficient ϵ ([2]; DMF) | Absorption Maximum Wavelength λ max ([2]; EtOH) [nm] | Molar Absorption Coefficient ϵ ([2]; EtOH) | Absorption Maximum Wavelength λ max ([2]; benzene) [nm] | Molar Absorption Coefficient ϵ ([2]; benzene) | Absorption Maximum Wavelength λ max ([2]; cyclohexane) [nm] | Emission Maximum Wavelength λ em ([3]; CH2Cl2) [nm] | Emission Maximum Wavelength λ em ([3]; CH3CN) [nm] | Emission Maximum Wavelength λ em ([3]; DMF) [nm] | Emission Maximum Wavelength λ em ([3]; EtOH) [nm] | Emission Maximum Wavelength λ em ([3]; cyclohexane) [nm] | Molar Absorption Coefficient ϵ ([2]; cyclohexane) | further results
CN(C)c1ccc(C2=Cc3ccccc3P2(=O)c2ccccc2)cc1 (stereo not drawn) [Compound 3, 2-[4-(N,N-dimethylamino)phenyl]-1-phenylbenzo[b]phosphole-P-oxide] | 0.89 | 0.82 | 0.91^b | 412 | 1.71 10^4M^−1 cm^−1 | 408 | 1.73 10^4M^−1 cm^−1 | 412 | 1.73 10^4M^−1 cm^−1 | 415 | 1.69 10^4M^−1 cm^−1 | 410 | 1.89 10^4M^−1 cm^−1 | 401 | 532 | 558 | 559 | 565 | 456 |  | Fluorescence Quantum Yield φF ([1]; CH2Cl2, apparatus C11347-01): 0.93; Fluorescence Quantum Yield φF ([1]; DMF, apparatus C11347-01): 0.88; Absolute fluorescence quantum yield compared with compound 2 ([1]; Tables 2 and 3): higher absolute fluorescence quantum yield than compound 2; Fluorescence Quantum Yield φF ([1]; benzene, apparatus C11347-01): 0.95; Emission Maximum Wavelength λ em ([3]; benzene): 507 nm
O=P1(c2ccccc2)C(c2cc3c4c(c2)CCCN4CCC3)=Cc2cc3ccccc3cc21 (stereo not drawn) [Compound 6c] | 0.71 | 0.67 |  |  |  | 425 | 2.35 10^4M^−1 cm^−1 |  |  | 429 | 2.33 10^4M^−1 cm^−1 |  |  | 420 |  | 580 |  | 583 | 466 | 2.38 10^4M^−1 cm^−1 | Fluorescence Quantum Yield φF [1, 5]: 0.90; Fluorescence Quantum Yield φF [1, 6]: 0.90; Absorption Maximum Wavelength λ max ([2]; ethyl acetate): 420 nm; Molar Absorption Coefficient ϵ ([2]; ethyl acetate): 2.38 10^4M^−1 cm^−1; Emission Maximum Wavelength λ em ([3]; ethyl acetate): 538 nm
O=P1(c2ccccc2)C(c2ccc(N(c3ccccc3)c3ccccc3)cc2)=C(c2ccccc2)c2ccccc21 (stereo not drawn) [Compound 1, 2-[4-(N,N-diphenylamino)phenyl]-1,3-diphenylbenzo[b]phosphole-P-oxide] | 0.67^a |  | 0.92^a,c | 416 | 1.76 10^4M^−1 cm^−1 | 404 |  | 409 | 1.77 10^4M^−1 cm^−1 | 417 | 1.68 10^4M^−1 cm^−1 | 416 | 1.88 10^4M^−1 cm^−1 | 412 | 561 | 597 | 598 | 595 | 508 | 1.82 10^4M^−1 cm^−1 | Fluorescence Quantum Yield φF ([1]; CH2Cl2, apparatus C9920-02): 0.84^b; Fluorescence Quantum Yield φF ([1]; CHCl3, apparatus C9920-02): 0.89^b; Fluorescence Quantum Yield φF ([1]; DMF, apparatus C9920-02): 0.71^b; Fluorescence Quantum Yield φF ([1]; benzene, apparatus C9920-02): 0.89^b; Absorption Maximum Wavelength λ max ([2]; CHCl3): 418 nm; Molar Absorption Coefficient ϵ ([2]; CHCl3): 1.78 10^4M^−1 cm^−1; Fluorescence in various solvents from low-polarity to high-polarity solvents [3]: strong fluorescence; Emission Maximum Wavelength λ em ([3]; CHCl3): 551 nm; Shift of fluorescence wavelength as the polarity of the solvent increases ([3]; Table 1 solvents): shifted to the longer wavelength; Emission Maximum Wavelength λ em ([3]; benzene): 531 nm
O=P1(c2ccccc2)C(c2ccc(N(c3ccccc3)c3ccccc3)cc2)=Cc2ccccc21 (stereo not drawn) [Compound 2, 2-[4-(N,N-diphenylamino)phenyl]-1-phenylbenzo[b]phosphole-P-oxide] | 0.61 | 0.57 | 0.93^b | 413 | 1.75 10^4M^−1 cm^−1 | 406 | 1.77 10^4M^−1 cm^−1 | 409 | 1.71 10^4M^−1 cm^−1 | 416 | 1.78 10^4M^−1 cm^−1 | 414 | 1.91 10^4M^−1 cm^−1 | 410 | 543 | 571 | 564 | 565 | 456 | 1.95 10^4M^−1 cm^−1 | Fluorescence Quantum Yield φF ([1]; CH2Cl2, apparatus C11347-01): 0.91; Fluorescence Quantum Yield φF ([1]; DMF, apparatus C11347-01): 0.67; Fluorescence Quantum Yield φF ([1]; benzene, apparatus C11347-01): 0.97; Emission Maximum Wavelength λ em ([3]; benzene): 497 nm
O=P1(c2ccccc2)C(c2ccc(N(c3ccccc3)c3ccccc3)cc2)=Cc2ccc3ccccc3c21 (stereo not drawn) [Compound 6d] | 0.58 | 0.51 |  |  |  | 439 | 2.07 10^4M^−1 cm^−1 |  |  | 448 | 1.94 10^4M^−1 cm^−1 |  |  | 440 |  | 620 |  | 611 | 495 | 1.81 10^4M^−1 cm^−1 | Fluorescence Quantum Yield φF [1, 5]: 0.92; Fluorescence Quantum Yield φF [1, 6]: 0.90; Absorption Maximum Wavelength λ max ([2]; ethyl acetate): 436 nm; Molar Absorption Coefficient ϵ ([2]; ethyl acetate): 2.02 10^4M^−1 cm^−1; Emission Maximum Wavelength λ em ([3]; ethyl acetate): 564 nm
